Results from ChEMBL document CHEMBL1132264, “Low-molecular-weight anti-HIV-1 peptides from the amino-terminal sequence of RANTES: possible lead compounds for coreceptor-directed anti-HIV-1 agents” (1999).
Where a SMILES comes first, the peptide text is derived from it.

What was measured:
[1] = system: Human immunodeficiency virus 1; experiment: Anti-HIV-1 activity of phytohemagglutininin activated peripheral blood mononuclear cells infected with the macrophage-tropic HIV-1 virus (JRCSF) at 100 nM; type: functional
[2] = system: Human immunodeficiency virus 1; experiment: Anti-HIV-1 activity of phytohemagglutininin activated peripheral blood mononuclear cells infected with the macrophage-tropic HIV-1 virus (JRCSF) at 10 nM; type: functional

SMILES: C[C@H](NC(=O)[C@@H]1CCCN1C(=O)[C@@H](NC(=O)[C@@H](NC(=O)[C@H](CC(=O)O)NC(=O)[C@H](CO)NC(=O)[C@H](CO)NC(=O)[C@@H](N)Cc1ccc(O)cc1)[C@@H](C)O)[C@@H](C)O)C(=O)O (H-YSSDTTPA-OH)
- inhibition at 0.1 µM [1]: 34%
- inhibition at 0.01 µM [2]: 41%

SMILES: CC(=O)N[C@@H](CO)C(=O)N1CCC[C@H]1C(=O)N[C@@H](Cc1ccc(O)cc1)C(=O)N[C@@H](CO)C(=O)N[C@@H](CO)C(=O)N[C@@H](CC(=O)O)C(=O)N[C@H](C(=O)N[C@H](C(=O)N1CCC[C@H]1C(=O)N[C@@H](C)C(N)=O)[C@@H](C)O)[C@@H](C)O (Ac-SPYSSDTTPA-NH2)
- inhibition at 0.1 µM [1]: 69%
- inhibition at 0.01 µM [2]: 51%

SMILES: C[C@H](NC(=O)[C@@H]1CCCN1C(=O)[C@@H](NC(=O)[C@@H](NC(=O)[C@H](CC(=O)O)NC(=O)[C@@H](N)CO)[C@@H](C)O)[C@@H](C)O)C(=O)O (H-SDTTPA-OH)
- inhibition at 0.1 µM [1]: 4%
- inhibition at 0.01 µM [2]: 9%

SMILES: C[C@H](NC(=O)[C@@H]1CCCN1C(=O)[C@@H](NC(=O)[C@@H](NC(=O)[C@H](CC(=O)O)NC(=O)[C@H](CO)NC(=O)[C@H](CO)NC(=O)[C@H](Cc1ccc(O)cc1)NC(=O)[C@@H]1CCCN1)[C@@H](C)O)[C@@H](C)O)C(=O)O [PYSSDTTPA] (H-PYSSDTTPA-OH)
- inhibition at 0.1 µM [1]: 39%
- inhibition at 0.01 µM [2]: 24%

SMILES: C[C@H](NC(=O)[C@@H]1CCCN1C(=O)[C@@H](NC(=O)[C@@H](N)[C@@H](C)O)[C@@H](C)O)C(=O)O (H-TTPA-OH)
- inhibition at 0.1 µM [1]: 0%
- inhibition at 0.01 µM [2]: 0%

SMILES: C[C@H](NC(=O)[C@@H]1CCCN1C(=O)[C@@H](NC(=O)[C@@H](NC(=O)[C@@H](N)CC(=O)O)[C@@H](C)O)[C@@H](C)O)C(=O)O (H-DTTPA-OH)
- inhibition at 0.1 µM [1]: 29%
- inhibition at 0.01 µM [2]: 18%

SMILES: CC(=O)N[C@@H](CC(=O)O)C(=O)N[C@H](C(=O)N[C@H](C(=O)N1CCC[C@H]1C(=O)N[C@@H](C)C(N)=O)[C@@H](C)O)[C@@H](C)O (Ac-DTTPA-NH2)
- inhibition at 0.1 µM [1]: 46%
- inhibition at 0.01 µM [2]: 43%

SMILES: C[C@H](NC(=O)[C@@H]1CCCN1C(=O)[C@@H](NC(=O)[C@@H](NC(=O)[C@H](CC(=O)O)NC(=O)[C@H](CO)NC(=O)[C@@H](N)CO)[C@@H](C)O)[C@@H](C)O)C(=O)O (H-SSDTTPA-OH)
- inhibition at 0.1 µM [1]: 22%
- inhibition at 0.01 µM [2]: 22%
